The values below come from patent US9701667B2, “Coumarin-based fluorogenic agents and uses thereof for specific protein labelling” (UNIVERSITY OF OTTAWA, priority 2014, dated 2017).

Usually melting point stands for the temperature of the solid-liquid transition.

The subject of data set [1] is MBP-dC10α. Kind of data set: Fluorescence properties and fluorescence enhancement (FE) before/after labelling of model target protein. The following applies: for Fluorescence enhancement (FE): after labelling with MBP-dC10, λex = 440 nm, λem = 485 nm, 50 mM HEPES pH 7.4; for fluorescence after the labelling reaction: after reaction with MBP-dC10α; for background (intrinsic) fluorescence before labelling / quenching: fluorogen without target protein. Format: biochemical. Here is the method: For experiments described herein, maltose-binding protein (MBP) was chosen as a highly-soluble test protein and the dC10α tag was fused to its C-terminus (MBP-dC10α) as described previously (Guy, J. et al., Mol. Biosyst. 2010, 6, 976-987).
Emission spectra and fluorescence intensity measurements were recorded at 37° C. with a Synergy H4 Hybrid Multi-Mode Microplate Reader with excitation and emission monochromators set at 9 nm bandpass. The mixture of 100 μM solution of fluorogen (YCx) and 100 μM MBP-dC10 in 50 mM HEPES buffer (pH 7.4) with 5% DMSO was incubated at 37° C. in the dark for 12 hours, after which the fluorescence emission spectrum of a dilution (25 μM final) in 50 mM HEPES buffer with 5% DMSO was recorded. The emission spectra of the corresponding labelling reagent in same solution without MBP-dC10α were also recorded. The ratio of fluorescence intensity at maximum emission gave the fluorescence enhancement (FE) ratio.

Data set [2] in a line: Kinetic studies of consecutive thiol addition reactions with model thiol MPA. The settings on record: for first thiol addition faster than second addition: ratio of first to second MPA addition rate; for k1 / k2: second order rate constant, 50 mM HEPES pH 7.4, 5% DMSO, 37° C.; for k1: first thiol addition of MPA; for k2: second thiol addition of MPA. The procedure: Kinetic studies were then performed for the thiol addition reactions of YC5 and YC9 with 3-mercaptopropionic acid (MPA) as a water-soluble, nucleophilic model thiol (Scheme 13). Reactions were run in the presence of a large excess of MPA, making them pseudo-first order in fluorogen. The resulting time-dependent increase in fluorescence was fit to a model for consecutive first order reactions, providing pseudo-first order rate constants for both addition steps. The concentration of MPA was then varied, allowing second order rate constants to be calculated for both steps.
where I is fluorescence intensity, and the fluorescence intensity is linearly proportional to the concentration, since the concentration of fluorogen used here is within the linear range. So IA=a*[A]; IB=b*[B]; IP=p*[P]; [A]0=2.5*10^−5. With this formula, there will be 5 parameters, but based on the nature of the reaction and the fluorescent properties of the compounds, the 5 parameters can be restrained as: p>b>a>0; k1>k2>0. Finally, the formula and the conditions were applied in Origin 6.0 to fit the curves by non-linear regression, yielding values for the kobs for each step.
Kinetic experiments were carried out at 37° C. using Synergy H4 Hybrid Multi-Mode Microplate Reader with excitation and emission monochromators 9 nm bandpass. Solutions with different MPA concentrations were prepared in 96-well plate and labelling reagent (YC5 or YC9) in DMSO was added immediately before recording. The final concentration of labelling reagent was 25 μM and the final concentrations of MPA were 0.875 mM, 1 mM, 1.125 mM or 1.25 mM in 50 mM HEPES buffer (pH 7.4) with 5% DMSO (FIG. 12). Samples were excited at 440 nm and fluorescence intensity was followed at 485 nm as a function of time. All the time-dependent fluorescence increase curves were fitted by non-linear regression according to the formula from the last section using Origin to get kobs. kobs was plotted against MPA concentrations to obtain a second order rate constant.

Data set [3] has as its system MBP-dC10α. The experiment in a line: Time-dependent fluorescence increase on reaction with test protein. Format: biochemical. The settings on record: for selectivity of labelling target protein over GSH: MBP-dC10 versus GSH; for reactivity with test protein MBP-dC10: 25 μM fluorogen, 25 μM MBP-dC10, 50 mM HEPES pH 7.4. Here is the method:
(§1) Reactivity was tested through the time-dependent fluorescence increase at 37° C. using Synergy H4 Hybrid Multi-Mode Microplate Reader with excitation and emission monochromators set to 9 nm bandpass. All reactions were prepared in 50 mM HEPES buffer (pH 7.4) with 5% DMSO. Solutions of MBP-dC10α or GSH were prepared in 96-well plates and labelling reagent (YCx) in DMSO was added immediately before recording. The final concentration of labelling reagent was 25 μM, the final concentration of MBP-dC10α was 25 μM and the final concentration of GSH was 50 μM or 1 mM in 50 mM HEPES buffer (pH 7.4) with 5% DMSO. Samples were excited at 440 nm and fluorescence intensity was followed at 485 nm as a function of time.

Data set [4] is described as follows: Time-dependent fluorescence increase on reaction with GSH. The following applies: for reaction with GSH: 50 mM HEPES pH 7.4; for reaction with low concentration of GSH / reaction with high concentration (large excess) of GSH: 25 μM fluorogen; for reaction with low concentration of GSH: 50 μM GSH; for reaction with high concentration (large excess) of GSH: 1 mM GSH. Here is the method:
as §1

The test system of another data set is cmyc-mNeptune-dC10α. The experiment in a line: Intracellular labelling of test protein in transfected cells (YC9). Format: cell-based, human. From the text: The red fluorescent protein mNeptune was chosen as a target protein so that its intrinsic fluorescence would serve as a control for the transfection and expression of the target protein. The target sequence dC10α was cloned to its C-terminus and the cmyc epitope (which would ensure the protein was also at least partially directed to the nucleus) was cloned to its N-terminus. […] Furthermore, fluorescent labelling was most intense and nearly limited to cells (FIG. 11D) that expressed the target red fluorescent test protein (FIG. 11E).
HEK 293T cells were plated into 6-well plates equipped with 25 mm×25 mm coverslips and grown in DMEM supplemented with 10% FBS 16 h before transfection. Cells were transiently transfected with mNeptune-dC10α or pcDNA3.1 using lipofectamine 2000. Either 24 or 48 h after transfection, the cells were washed with complete DMEM and incubated with 25 μM YC9 in DMEM for 30 min at 37° C. The media with labelling reagent was removed and followed by 3 times washing over 3 h at 37° C. Cells were fixed after labelling for imaging on a Carl Zeiss Axiophot inverted microscope.

For another data set, the system named is HEK293T cells. The experiment in a line: MTT cytotoxicity assay. The data set is classed as cell-based, human. The following applies: 20 h incubation. Here is the method:
3-(4,5-Dimethylthiazol-2-yl)-2,5-diphenyl tetrazolium bromide (MTT) is a yellow tetrazolium salt and can be reduced to formazan crystals, which are insoluble in aqueous solutions, by active mitochondria in living cells. The resulting intracellular purple formazan can be dissolved in Triton X100, and therefore quantified by measuring absorption of the solution.
Cells were seeded in a 96-well plate and incubated with 100 μL of culture medium with different amounts of the fluorogen YCx for 16 h. No fluorogen was added to the positive control and no cells were plated in the negative control. Portions of 25 μL of MTT solution (5 mg in 1 mL of Hanks' balanced salt solution) were added to the wells and the cells were further incubated at 37° C. for 4 h. Solubilization solutions (100 μL) were then added and incubated in 96-well plates at room temperature in the dark overnight. The absorption of each well was measured using a plate reader at a wavelength of 570 nm with 690 nm as a reference. Cell viability was calculated according to the following equation: Cell viability=(Awith fluorogen−Anegative control)/(Apositive control−Anegative control).
In general terms: Tetrazolium assays rely on reduction of a dye to a coloured formazan, in cell work by metabolically active cells.

The nature of another data set: Aqueous solubility. Format: physicochemical.

Entries after “also recorded” stand apart in the source; their conditions may differ.

Regarding `CCN(CC)c1ccc2cc(C(=O)Nc3cc(N4C(=O)C=C(C)C4=O)cc(N4C(=O)C=C(C)C4=O)c3)c(=O)oc2c1` [YC5, N-(3,5-bis(3-methyl-2,5-dioxo-2,5-dihydro-1H-pyrrol-1-yl)phenyl)-7-(diethylamino)-2-oxo-2H-chromene-3-carboxamide], in the data set with MBP-dC10α [1], the “Fluorescence enhancement (FE)” value turned out to be 69, the “fluorescence after the labelling reaction” value is given as “strong fluorescence; also recorded: strongly fluorescent” and the “background (intrinsic) fluorescence before labelling / quenching” value is “negligible background fluorescence”. Moreover, in data set [2], the “first thiol addition faster than second addition” value is 7 times, the k1 is 1.208 ± 0.249 M⁻¹ s⁻¹ and the k2 came out at 0.1571 ± 0.0510 M⁻¹ s⁻¹. In the data set with MBP-dC10α [3], the “selectivity of labelling target protein over GSH” value is given as “reacted faster with MBP-dC10α than with GSH”. In data set [4], the “reaction with GSH” value is given as “still appreciable”.
The compound `CCN(CC)c1ccc2cc(C(=O)Nc3cc(N4C(=O)C=C(C)C4=O)cc(N4C(=O)C=C(OC)C4=O)c3)c(=O)oc2c1` [YC9, 7-(Diethylamino)-N-(3-(3-methoxy-2,5-dioxo-2,5-dihydro-1H-pyrrol-1-yl)-5-(3-methyl-2,5-dioxo-2,5-dihydro-1H-pyrrol-1-yl)phenyl)-2-oxo-2H-chromene-3-carboxamide] had a melting point of 88.3 to 93.7 °C. In the data set on MBP-dC10α [1], the “Fluorescence enhancement (FE)” value was 62, the “fluorescence after the labelling reaction” value is “strongly fluorescent” and the “background (intrinsic) fluorescence before labelling / quenching” value is listed as “negligible background fluorescence”. Further, in data set [2], the “first thiol addition faster than second addition” value worked out at 63 times, the k1 turned out to be 2.480 ± 0.216 M⁻¹ s⁻¹ and the k2 worked out at 0.0388 ± 0.0133 M⁻¹ s⁻¹. Also, in the data set on MBP-dC10α [3], the “reactivity with test protein MBP-dC10” value is on record as “still rapid”. Moreover, in data set [4], the “reaction with low concentration of GSH” value was “did not react”, the “reaction with high concentration (large excess) of GSH” value (shortened to “reaction with high concentration”) was “showed some signal” and the “reaction with GSH” value is listed as “completely suppressed”. In the data set on cmyc-mNeptune-dC10α (HEK293 cells transfected with cmyc-mNeptune-dC10α, 25 μM YC9, 30 min), the “selectivity of labelling dC10α-tagged target protein in living cells” value is “high selectivity”. Also, in the data set with cmyc-mNeptune-dC10α (cells transfected with empty (mock) vector, 25 μM YC9), the “background fluorescence in mock-transfected cells” value is “minimal background fluorescence”.
As to `CCC1=CC(=O)N(c2cc(NC(=O)c3cc4ccc(N(CC)CC)cc4oc3=O)cc(N3C(=O)C=C(C)C3=O)c2)C1=O` [YC15], the “Fluorescence enhancement (FE)” value in the data set with MBP-dC10α [1] turned out to be 226. Also, in data set [4], the “reaction with low concentration of GSH” value is listed as “did not react” and the “reaction with high concentration” value is given as “showed some signal”.
For `CCN(CC)c1ccc2cc(C(=O)Nc3cc(N4C(=O)C=C(C)C4=O)cc(N4C(=O)C=C(C(C)C)C4=O)c3)c(=O)oc2c1` [YC16], in that order: 228, “did not react” and “showed some signal”.
For `CCOC1=CC(=O)N(c2cc(NC(=O)c3cc4ccc(N(CC)CC)cc4oc3=O)cc(N3C(=O)C=C(C)C3=O)c2)C1=O` [YC17] the same measures were 194, “did not react” and “showed some signal”.
As for `CCN(CC)c1ccc2cc(C(=O)Nc3cc(N4C(=O)C=C(C)C4=O)cc(N4C(=O)C=C(Br)C4=O)c3)c(=O)oc2c1` [YC18], the “Fluorescence enhancement (FE)” value in the data set on MBP-dC10α [1] worked out at 468. Besides, in the data set with MBP-dC10α [3], the “reactivity with test protein MBP-dC10” value is given as “much more reactive than other fluorogens; also recorded: labelled the protein most efficiently” and the “selectivity of labelling target protein over GSH” value is reported as “did not show much difference; also recorded: not as selectively as other fluorogens”.
Consider `CCN(CC)c1ccc2cc(C(=O)Nc3cc(N4C(=O)C=C(C)C4=O)cc(N4C(=O)C=C(OC(C)C)C4=O)c3)c(=O)oc2c1` [YC19], for which the “Fluorescence enhancement (FE)” value with MBP-dC10α [1] amounted to 189. Further, in data set [4], the “reaction with low concentration of GSH” value was “did not react” and the “reaction with high concentration” value is listed as “showed some signal”.
Regarding `COC(=O)CCN(CCC(=O)OC)c1ccc2cc(C(=O)Nc3cc(N4C(=O)C=C(OC)C4=O)cc(N4C(=O)C=C(OC)C4=O)c3)c(=O)oc2c1` [YC21M, Dimethyl 3,3′-((3-((3,5-bis(3-methoxy-2,5-dioxo-2,5-dihydro-1H-pyrrol-1-yl)phenyl)carbamoyl)-2-oxo-2H-chromen-7-yl)azanediyl)dipropanoate], the “cytotoxicity (cell viability, MTT)” value in the data set on HEK293T cells was “neither showed any cytotoxicity up to 100 μM”.
For `COc1ccc2cc(C(=O)N3CCN(C(=O)c4cc(N5C(=O)C=C(C)C5=O)cc(N5C(=O)C=C(C)C5=O)c4)CC3)c(=O)oc2c1` [YC24, 1,1′-(5-(4-(7-methoxy-2-oxo-2H-chromene-3-carbonyl)piperazine-1-carbonyl)-1,3-phenylene)bis(3-methyl-1H-pyrrole-2,5-dione)], in the data set on MBP-dC10α [1], the “fluorescence after the labelling reaction” value is reported as “weak” and the “background (intrinsic) fluorescence before labelling / quenching” value is recorded as “quenched very efficiently”.
Consider `CCN(CC)c1ccc2cc(C(=O)N3CCN(C(=O)c4cc(N5C(=O)C=C(C)C5=O)cc(N5C(=O)C=C(C)C5=O)c4)CC3)c(=O)oc2c1` [YC25, 1,1′-(5-(4-(7-(diethylamino)-2-oxo-2H-chromene-3-carbonyl)piperazine-1-carbonyl)-1,3-phenylene)bis(3-methyl-1H-pyrrole-2,5-dione)], for which the “background (intrinsic) fluorescence before labelling / quenching” value in the data set with MBP-dC10α [1] is “strong background fluorescence”.
In the case of `COc1ccc2cc(C(=O)Nc3cc(N4C(=O)C=C(C)C4=O)cc(N4C(=O)C=C(C)C4=O)c3)c(=O)oc2c1` [YC26, N-(3,5-bis(3-methyl-2,5-dioxo-2,5-dihydro-1H-pyrrol-1-yl)phenyl)-7-methoxy-2-oxo-2H-chromene-3-carboxamide], the aqueous solubility entry in “Aqueous solubility” is “poor aqueous solubility”.
